Test results as given in patent US20180020668A1, “Agricultural Mixtures” (priority 2015, published 2018).

What was measured:
Type in all cases: in vivo
[1] = test system: Rhizoctonia; experiment: Corn emergence, vigor and pest infestation study (Example 1, two plantings); conditions: for Plant Emergence: corn, field inoculated with Rhizoctonia, seed treatment, rates per treatment in mg ai/seed; for Plant Emergence / Pest Severity / Pest Incidence / Plant Vigor: about 30 DAP; for Pest Severity: percentage of infected plants; for Pest Incidence / Plant Vigor: rated on a scale of 1 to 9; for Plant Yield: about six months after planting
[2] = test system: corn; experiment: Corn plant stand establishment and yield study (Example 2); conditions: seed treatment, rates in mg active[s] per seed
Method: A study was conducted in order to determine the effects of seed treatments on the number of corn plants per acre and yield. One acre was planted with seeds treated as indicated below in a randomized block design. Treatments were applied to the seeds in a manner known by those of skill in the art. The number of plants was determined for each treatment on four different days before harvest. After harvest, the yield of the plants was determined. The results of this study can be seen below in Tables 2 and 3.

[3] = test system: corn; experiment: Another corn plant stand establishment and yield study (Example 3); conditions: seed treatment, rates in mg active[s] per seed
Method: Another study was conducted in order to determine the effects of seed treatments on the number of corn plants per acre and yield. The study design was the same as the study described in Example 1. The results of this study can be seen below in Tables 3 and 4.

CN1COCN(Cc2cnc(Cl)s2)C1=N[N+](=O)[O-] [Thiamethoxam, 3-[(2-Chloro-1,3-thiazol-5-yl)methyl]-5-methyl-N-nitro-1,3,5-oxadiazinan-4-imine]
Plant Emergence ([1]; first planting): 19800 plants per acre | Plant Emergence ([1]; second planting): 25450 plants per acre | Pest Severity ([1]; first planting): 41.3% | Pest Incidence ([1]; first planting): 3.8 | Plant Vigor ([1]; first planting): 4.0 | Plant Yield ([1]; first planting): 60.8 Bu/A | Pest Severity ([1]; second planting): 16.3% | Pest Incidence ([1]; second planting): 6.5 | Plant Vigor ([1]; second planting): 5.5 | Plant Yield ([1]; second planting): 106.7 Bu/A | Corn Plant Stand - Number of Plants Per Acre ([2]; 34 DAP): 22052 Plants Per Acre | Corn Plant Stand - Number of Plants Per Acre ([2]; 116 DAP): 20010 Plants Per Acre | Corn Plant Yield [3]: 172 Bushels/Acre
